In US4839387A, “Derivative of thiazolidine-4-carboxylic acid, its preparation and pharmaceutical compositions containing it” (Poli Industria Chimica S.P.A., priority 1987, dated 1989):
Non-standard residues stand in square brackets, D forms with d. Residues, ends and D or L forms follow the SMILES beside them. pGlu = O=C1CC[C@@H](C(=O)O)N1; Thz = O=C(O)[C@@H]1CSCN1

What was measured:
[1] = tested on: male rats; assay: Delayed-type hypersensitivity induced by dinitrochlorobenzene (DNCB); format: in vivo, rat
Experimental: For this purpose, male adult rats (5-6 months old) were used as animal model with normal immuno-competent system, and old rats (17-18 months) as a paraphysiological immunodeficiency model.
The PGTCA treatment has been carried out i.p. at the dose of 1, 10 or 50 mg/kg twice a day for 4 weeks. The used immunological tests were the delayed-type hypersensitivity induced by dinitrochlorobenzene (DNCB) and the T-lymphocyte response to concanavaline A (ConA).
After 4 weeks of PGTCA pre-treatment (or vehicle), 0.02 ml of DNCB (solubilized in acetone at the concentration of 200 mg/ml) was applied to each animal (5 rats per group) on the cutis of the back, on an area of about 1 cm^2. The subsequent inflammatory reaction was evaluated by measuring the diameter of the reddish area by means of a thickness gauge from day 1 to day 7.
During this period the animals were constantly treated.

[2] = tested on: male rat; assay: Sexual behaviour of the male rat; format: in vivo; settings: latencies and frequences of sexual acts

SMILES: O=C1CC[C@@H](C(=O)N2CSC[C@H]2C(=O)O)N1 [PGTCA, 3-L-pyroglutamyl-Lthiazolidine-4-carboxylic acid] ([pGlu]-[Thz]-OH)
- response to DNCB, evaluated as inflammation area ([1]; old animals, already at the dose of 10 mg/kg): maximum enhancing increase
- response to DNCB, evaluated as inflammation area ([1]; young animals, only at the dose of 50 mg/kg): significant increase
- sexual behaviour [2]: favourable influence
